Reference: paper PMC4051630, “A Comparison of Protein Kinases Inhibitor Screening Methods Using Both Enzymatic Activity and Binding Affinity Determination” (PLoS ONE, 2014)

Key:
AKT3 Catalytic Domain = molecular target: T1, AKT3 Catalytic Domain (Homo sapiens, UniProt Q9Y243); test: Caliper mobility shift kinase activity assay; assay type: biochemical; details: AKT3 CD (122–479); read-out: ATP Km
T1 construct: AKT3 (Q9Y243); CD; His-tag; made in house; host or cells: Escherichia coli

CDK2 + Cyclin A = molecular target: T2, CDK2 + Cyclin A (Homo sapiens, UniProt P24941); test: Caliper mobility shift kinase activity assay; assay type: biochemical; details: CDK2 with CCNA2 (Cyclin A); read-out: ATP Km
T2 construct: CDK2 (P24941); 1–299; His-tag; made in house; host or cells: Escherichia coli

CDK2 + Cyclin E = molecular target: T3, CDK2 + Cyclin E (Homo sapiens, UniProt P24941); test: Caliper mobility shift kinase activity assay; assay type: biochemical; details: CDK2 with CCNE1 (Cyclin E); read-out: ATP Km
T3 construct: CDK2 (P24941); 1–299; His-tag; made in house; host or cells: Escherichia coli

CHK2 Catalytic Domain = molecular target: T4, CHK2 Catalytic Domain (Homo sapiens, UniProt O96017); test: Caliper mobility shift kinase activity assay; assay type: biochemical; details: CHK2 CD; read-out: ATP Km
T4 construct: For all of them, we expressed and purified the catalytic domain separately; His-tag; made in house; host or cells: Escherichia coli
T4 sequence (O96017 220-486 limits assumed): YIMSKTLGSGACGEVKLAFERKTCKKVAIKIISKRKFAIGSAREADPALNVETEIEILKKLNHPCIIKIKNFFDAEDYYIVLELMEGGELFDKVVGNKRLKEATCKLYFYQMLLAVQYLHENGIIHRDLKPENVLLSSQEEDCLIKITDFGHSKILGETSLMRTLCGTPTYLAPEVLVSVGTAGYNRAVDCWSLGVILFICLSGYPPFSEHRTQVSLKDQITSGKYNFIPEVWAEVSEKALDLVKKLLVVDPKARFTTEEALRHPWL

DMPK Catalytic Domain = molecular target: T5, DMPK Catalytic Domain (Homo sapiens, UniProt Q09013); test: Caliper mobility shift kinase activity assay; assay type: biochemical; details: DMPK CD; read-out: ATP Km
T5 construct: For all of them, we expressed and purified the catalytic domain separately; His-tag; made in house; host or cells: Escherichia coli
T5 sequence (Q09013 71-339 limits assumed): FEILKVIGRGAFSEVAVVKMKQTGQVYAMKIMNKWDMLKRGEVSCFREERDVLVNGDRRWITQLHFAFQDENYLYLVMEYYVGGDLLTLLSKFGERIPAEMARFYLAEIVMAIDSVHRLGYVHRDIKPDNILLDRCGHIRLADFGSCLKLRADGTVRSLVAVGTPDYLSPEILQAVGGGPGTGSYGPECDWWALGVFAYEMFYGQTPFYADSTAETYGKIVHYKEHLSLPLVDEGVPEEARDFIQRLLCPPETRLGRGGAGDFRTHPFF

FES Catalytic Domain = molecular target: T6, FES Catalytic Domain (Homo sapiens, UniProt P07332); test: Caliper mobility shift kinase activity assay; assay type: biochemical; details: FES CD; read-out: ATP Km
T6 construct: For all of them, we expressed and purified the catalytic domain separately; His-tag; made in house; host or cells: Escherichia coli
T6 sequence (P07332 561-822 limits assumed): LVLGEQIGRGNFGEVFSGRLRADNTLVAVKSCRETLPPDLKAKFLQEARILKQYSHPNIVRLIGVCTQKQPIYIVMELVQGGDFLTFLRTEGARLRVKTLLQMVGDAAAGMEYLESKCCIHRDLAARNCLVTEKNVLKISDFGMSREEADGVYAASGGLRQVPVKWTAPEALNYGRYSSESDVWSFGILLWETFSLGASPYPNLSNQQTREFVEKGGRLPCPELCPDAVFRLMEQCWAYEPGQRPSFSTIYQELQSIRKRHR

FES Catalytic Domain+SH2 = molecular target: T7, FES Catalytic Domain+SH2 (Homo sapiens, UniProt P07332); test: Caliper mobility shift kinase activity assay; assay type: biochemical; details: FES CD+SH2; read-out: ATP Km
T7 construct: for 8, we also made a longer version containing one or more additional domains; His-tag; made in house; host or cells: Escherichia coli
T7 sequence (P07332 448-822 limits assumed): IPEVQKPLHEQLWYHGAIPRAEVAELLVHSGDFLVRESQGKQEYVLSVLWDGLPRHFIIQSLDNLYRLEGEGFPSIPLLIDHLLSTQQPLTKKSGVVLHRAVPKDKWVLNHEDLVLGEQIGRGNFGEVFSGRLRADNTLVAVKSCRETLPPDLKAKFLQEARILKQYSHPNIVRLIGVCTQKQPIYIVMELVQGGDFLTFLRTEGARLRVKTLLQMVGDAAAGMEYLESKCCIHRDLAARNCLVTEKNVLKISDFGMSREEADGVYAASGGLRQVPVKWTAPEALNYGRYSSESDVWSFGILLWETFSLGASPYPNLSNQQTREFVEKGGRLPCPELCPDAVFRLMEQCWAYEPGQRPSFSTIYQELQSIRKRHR

PAK4 Catalytic Domain = molecular target: T8, PAK4 Catalytic Domain (Homo sapiens, UniProt O96013); test: Caliper mobility shift kinase activity assay; assay type: biochemical; details: PAK4 CD; read-out: ATP Km
T8 construct: For all of them, we expressed and purified the catalytic domain separately; His-tag; made in house; host or cells: Escherichia coli
T8 sequence (O96013 321-572 limits assumed): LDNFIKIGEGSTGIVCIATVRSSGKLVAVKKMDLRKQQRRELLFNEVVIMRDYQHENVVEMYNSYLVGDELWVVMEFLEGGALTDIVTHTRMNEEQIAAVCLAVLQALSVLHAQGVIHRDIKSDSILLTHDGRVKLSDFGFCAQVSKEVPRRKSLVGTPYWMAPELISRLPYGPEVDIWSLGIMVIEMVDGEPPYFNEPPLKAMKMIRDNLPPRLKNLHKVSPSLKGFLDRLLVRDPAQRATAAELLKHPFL
Method: (§1) This ensures comparability of compound potency between the kinases. […] […].
(§2) […]. […] […].
(§3) IC50 was determined once for each compound-kinase combination.

[1] = molecular target: T9, PAK4 Catalytic Domain+PBD (Homo sapiens, UniProt O96013); test: Caliper mobility shift kinase activity assay; assay type: biochemical; details: PAK4 CD+PBD; read-out: ATP Km
T9 construct: for 8, we also made a longer version containing one or more additional domains; His-tag; made in house; host or cells: Escherichia coli
T9 sequence (O96013 whole entry, the tested form may be a part): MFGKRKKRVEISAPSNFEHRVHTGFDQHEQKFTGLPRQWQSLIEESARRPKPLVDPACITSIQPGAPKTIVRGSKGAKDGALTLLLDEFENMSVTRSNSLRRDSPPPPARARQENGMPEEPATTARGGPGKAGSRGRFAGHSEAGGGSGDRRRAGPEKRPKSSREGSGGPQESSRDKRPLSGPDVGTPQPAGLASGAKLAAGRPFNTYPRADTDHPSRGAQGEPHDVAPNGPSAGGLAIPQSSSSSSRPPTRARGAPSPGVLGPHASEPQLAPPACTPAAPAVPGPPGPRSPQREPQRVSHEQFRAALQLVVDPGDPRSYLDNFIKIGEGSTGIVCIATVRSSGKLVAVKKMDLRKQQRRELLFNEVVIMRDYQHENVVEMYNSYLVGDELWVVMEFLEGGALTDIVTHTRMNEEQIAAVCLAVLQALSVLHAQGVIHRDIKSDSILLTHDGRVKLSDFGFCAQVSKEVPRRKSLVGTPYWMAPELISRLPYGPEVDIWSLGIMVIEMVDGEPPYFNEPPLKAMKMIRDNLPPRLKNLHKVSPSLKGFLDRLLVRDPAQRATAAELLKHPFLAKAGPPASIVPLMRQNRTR
Method: as §1, §2, §3

PAK7 Catalytic Domain = molecular target: T10, PAK7 Catalytic Domain (Homo sapiens, UniProt Q9P286); test: Caliper mobility shift kinase activity assay; assay type: biochemical; details: PAK7 CD; read-out: ATP Km
T10 construct: For all of them, we expressed and purified the catalytic domain separately; His-tag; made in house; host or cells: Escherichia coli
T10 sequence (Q9P286 449-700 limits assumed): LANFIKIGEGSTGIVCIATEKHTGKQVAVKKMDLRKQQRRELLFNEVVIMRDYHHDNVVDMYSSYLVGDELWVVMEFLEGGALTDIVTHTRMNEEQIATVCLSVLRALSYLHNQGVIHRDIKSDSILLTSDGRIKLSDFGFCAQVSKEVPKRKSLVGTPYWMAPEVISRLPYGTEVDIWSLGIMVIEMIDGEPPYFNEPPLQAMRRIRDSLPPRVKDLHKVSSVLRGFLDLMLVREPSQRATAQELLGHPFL

STK3 Catalytic Domain = molecular target: T11, STK3 Catalytic Domain (Homo sapiens, UniProt Q13188); test: Caliper mobility shift kinase activity assay; assay type: biochemical; details: STK3 CD; read-out: ATP Km
T11 construct: For all of them, we expressed and purified the catalytic domain separately; His-tag; made in house; host or cells: Escherichia coli
T11 sequence (Q13188 27-278 limits assumed): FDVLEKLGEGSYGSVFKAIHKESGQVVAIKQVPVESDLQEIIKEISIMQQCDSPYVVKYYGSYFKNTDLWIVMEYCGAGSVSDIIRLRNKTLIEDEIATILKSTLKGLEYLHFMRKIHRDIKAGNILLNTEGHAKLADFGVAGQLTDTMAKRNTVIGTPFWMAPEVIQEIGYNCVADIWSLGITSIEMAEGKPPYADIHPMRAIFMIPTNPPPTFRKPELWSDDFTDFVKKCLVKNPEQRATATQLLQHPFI

[2] = molecular target: T12, STK3 Catalytic domain+SARAH (Homo sapiens, UniProt Q13188); test: Caliper mobility shift kinase activity assay; assay type: biochemical; details: STK3 CD+SARAH; read-out: ATP Km
T12 construct: for 8, we also made a longer version containing one or more additional domains; His-tag; made in house; host or cells: Escherichia coli
T12 sequence (Q13188 1-491): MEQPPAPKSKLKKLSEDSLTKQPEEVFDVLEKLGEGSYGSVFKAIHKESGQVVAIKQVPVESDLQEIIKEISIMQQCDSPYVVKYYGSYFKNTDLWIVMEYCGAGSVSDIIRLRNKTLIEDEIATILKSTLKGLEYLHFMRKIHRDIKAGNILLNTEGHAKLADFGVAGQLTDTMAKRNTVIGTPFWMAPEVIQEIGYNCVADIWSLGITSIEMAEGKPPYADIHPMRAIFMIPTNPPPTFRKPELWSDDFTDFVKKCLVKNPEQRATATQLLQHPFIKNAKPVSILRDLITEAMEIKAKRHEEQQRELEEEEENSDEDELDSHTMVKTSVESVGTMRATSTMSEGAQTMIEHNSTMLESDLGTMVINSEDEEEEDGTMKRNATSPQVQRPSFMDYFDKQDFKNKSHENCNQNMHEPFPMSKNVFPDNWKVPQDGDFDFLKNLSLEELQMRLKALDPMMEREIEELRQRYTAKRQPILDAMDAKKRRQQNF

SRC Catalytic Domain = SRC Catalytic Domain (Homo sapiens, UniProt P12931); details: read-out: ATP Km; SRC CD
[3] = molecular target: SRC Catalytic Domain+SH2+SH3 (Homo sapiens, UniProt P12931); details: read-out: ATP Km; SRC CD+SH2/3

T1 sequence (Q9Y243 122-479): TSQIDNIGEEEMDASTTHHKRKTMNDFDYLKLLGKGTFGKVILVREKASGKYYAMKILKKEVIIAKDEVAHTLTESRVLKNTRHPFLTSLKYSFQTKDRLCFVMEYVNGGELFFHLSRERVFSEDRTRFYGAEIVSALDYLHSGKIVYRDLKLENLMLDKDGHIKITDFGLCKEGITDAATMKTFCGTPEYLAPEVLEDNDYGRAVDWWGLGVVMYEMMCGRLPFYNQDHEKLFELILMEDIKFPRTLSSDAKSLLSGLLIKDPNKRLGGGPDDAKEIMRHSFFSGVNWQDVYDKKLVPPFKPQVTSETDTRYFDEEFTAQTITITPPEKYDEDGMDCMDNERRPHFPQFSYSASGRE

- Km (AKT3 Catalytic Domain): 564 ± 36 µM
- Km (CDK2 + Cyclin A): 238 ± 12 µM
- Km (CDK2 + Cyclin E): 145 ± 4 µM
- Km (CHK2 Catalytic Domain): 130 ± 13 µM
- Km (DMPK Catalytic Domain): 470 ± 69 µM
- Km (FES Catalytic Domain): 49 ± 11 µM
- Km (FES Catalytic Domain+SH2): 53 ± 13 µM
- Km (PAK4 Catalytic Domain): 11 ± 1 µM
- Km [1]: 11 ± 1 µM
- Km (PAK7 Catalytic Domain): 5 ± 0.4 µM
- Km (STK3 Catalytic Domain): 140 ± 12 µM
- Km [2]: 66 ± 2 µM
- Km (SRC Catalytic Domain): 134 ± 16 µM
- Km [3]: 226 ± 33 µM
SMILES: Nc1ncnc2c1ncn2[C@@H]1O[C@H](COP(=O)(O)OP(=O)(O)OP(=O)(O)O)[C@@H](O)[C@H]1O [ATP]
